{"source": "ChEMBL document CHEMBL4808186", "about": "“Structure-Based Discovery of Pyrimidine Aminobenzene Derivatives as Potent Oral Reversal Agents against P-gp- and BCRP-Mediated Multidrug Resistance” (J Med Chem, 2021)", "key": {"[1]": {"test_system": "K562", "assay": "Cytotoxicity against human K562 cells incubated for 48 hrs by MTT assay", "assay_type": "functional, cell-based", "conditions": "K562, 48 h"}, "[2]": {"test_system": "K562/A02", "assay": "Cytotoxicity against P-gp overexpressing human K562/A02 cells incubated for 48 hrs by MTT assay", "assay_type": "functional, cell-based", "conditions": "K562/A02, 48 h, read-out: IC50"}, "[3]": {"assay": "n-Octanol/water partition coefficient, logP of the compound by UHPLC analysis", "assay_type": "physicochemical"}, "[4]": {"target": "T1, ATP-dependent translocase ABCB1 (Homo sapiens, UniProt P08183)", "T1 sequence (P08183 whole entry)": "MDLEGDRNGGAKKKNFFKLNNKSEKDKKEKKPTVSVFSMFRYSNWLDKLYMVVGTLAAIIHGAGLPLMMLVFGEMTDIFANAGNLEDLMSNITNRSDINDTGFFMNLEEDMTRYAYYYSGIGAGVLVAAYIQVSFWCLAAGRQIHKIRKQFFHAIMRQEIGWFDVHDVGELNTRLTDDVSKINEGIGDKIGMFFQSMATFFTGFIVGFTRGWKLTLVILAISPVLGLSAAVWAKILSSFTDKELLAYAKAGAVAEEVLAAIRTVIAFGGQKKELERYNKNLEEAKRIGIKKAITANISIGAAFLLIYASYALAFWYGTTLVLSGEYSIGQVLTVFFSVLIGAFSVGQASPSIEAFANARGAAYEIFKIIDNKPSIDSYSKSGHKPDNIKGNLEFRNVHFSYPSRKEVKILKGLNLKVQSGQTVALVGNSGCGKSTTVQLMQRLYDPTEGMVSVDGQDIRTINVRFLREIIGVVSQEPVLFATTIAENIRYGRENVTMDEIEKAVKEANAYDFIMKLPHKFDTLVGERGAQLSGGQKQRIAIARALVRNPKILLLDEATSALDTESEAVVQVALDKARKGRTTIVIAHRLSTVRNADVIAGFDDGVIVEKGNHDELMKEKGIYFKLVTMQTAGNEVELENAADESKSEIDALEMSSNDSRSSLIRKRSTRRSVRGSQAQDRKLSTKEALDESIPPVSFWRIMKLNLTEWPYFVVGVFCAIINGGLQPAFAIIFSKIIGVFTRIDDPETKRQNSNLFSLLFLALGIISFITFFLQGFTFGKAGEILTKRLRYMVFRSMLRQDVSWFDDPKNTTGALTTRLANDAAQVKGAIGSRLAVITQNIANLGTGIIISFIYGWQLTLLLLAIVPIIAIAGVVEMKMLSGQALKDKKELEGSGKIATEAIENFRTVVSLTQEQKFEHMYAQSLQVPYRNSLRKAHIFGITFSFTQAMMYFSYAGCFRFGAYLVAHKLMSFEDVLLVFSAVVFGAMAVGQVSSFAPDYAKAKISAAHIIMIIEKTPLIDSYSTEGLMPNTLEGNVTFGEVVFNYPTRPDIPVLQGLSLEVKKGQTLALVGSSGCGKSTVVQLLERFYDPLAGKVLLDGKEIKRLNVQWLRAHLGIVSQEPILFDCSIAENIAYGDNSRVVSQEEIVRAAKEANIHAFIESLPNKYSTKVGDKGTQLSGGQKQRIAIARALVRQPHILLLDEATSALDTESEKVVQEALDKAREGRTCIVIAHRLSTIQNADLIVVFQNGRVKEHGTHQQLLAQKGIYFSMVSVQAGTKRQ", "assay": "Inhibition of P-gp-mediated multidrug resistance in human K562/A02 cells assessed as Adriamycin accumulation at 1 to 10 uM pretreated 1 hr followed by treated with adriamycin measured after 180 mins by fluorescence microscopy", "assay_type": "cell-based", "conditions": "k562/a02, 4 h, dose 1-10 µM, time 240 min"}, "[5]": {"test_system": "MDCK-II", "assay": "Inhibition of BCRP-mediated multidrug resistance in MDCK-II cells assessed as mitoxantrone accumulation […] pretreated 1 hr followed by treated with mitoxantrone measured after 180 mins by fluorescence microscopy", "assay_type": "cell-based", "conditions": "Canis lupus familiaris, time 240.0 min"}, "[6]": {"target": "T1, ATP-dependent translocase ABCB1", "assay": "Inhibition of P-gp-mediated multidrug resistance in human K562/A02 cells assessed as Adriamycin accumulation pretreated 1 hr followed by treated with adriamycin measured after 180 mins by flow cytometry", "assay_type": "cell-based", "conditions": "k562/a02, 4 h, time 240 min"}, "[7]": {"test_system": "MDCK-II", "assay": "Inhibition of BCRP-mediated multidrug resistance in MDCK-II cells assessed as mitoxantrone accumulation at 0.1 to 5 uM pretreated 1 hr followed by treated with mitoxantrone measured after 180 mins by flow cytometry", "assay_type": "cell-based", "conditions": "Canis lupus familiaris, dose 0.1-5 µM, time 240.0 min"}, "[8]": {"target": "T1, ATP-dependent translocase ABCB1", "assay": "Inhibition of P-gp-mediated multidrug resistance in human K562/A02 cells assessed as suppression of Rh123 efflux at 10 uM treated after 90 mins of Rh123 treatment measure up to 120 mins by flow cytometry", "assay_type": "cell-based", "conditions": "k562/a02, 10 µM"}, "[9]": {"test_system": "K562/A02", "assay": "Potentiation of adriamycin-induced apoptosis in human K562/A02 cells assessed as viable cells at 0.5 uM incubated for 48 hrs in presence of 10 uM adriamycin by Annexin-V/FITC-based flow cytometry (reference value: 96.5%)", "assay_type": "functional", "conditions": "read-out: Activity"}, "[10]": {"test_system": "K562/A02", "assay": "Potentiation of adriamycin-induced apoptosis in human K562/A02 cells assessed as early apoptotic cells at 0.5 uM incubated for 48 hrs in presence of 10 uM adriamycin by Annexin-V/FITC-based flow cytometry (reference value: 2.9%)", "assay_type": "functional"}, "[11]": {"test_system": "K562/A02", "assay": "Potentiation of adriamycin-induced apoptosis in human K562/A02 cells assessed as late apoptotic cells at 0.5 uM incubated for 48 hrs in presence of 10 uM adriamycin by Annexin-V/FITC-based flow cytometry (reference value: 0.4%)", "assay_type": "functional"}, "[12]": {"test_system": "K562/A02", "assay": "Potentiation of adriamycin-induced apoptosis in human K562/A02 cells assessed as necrotic cells at 0.5 uM incubated for 48 hrs in presence of 10 uM adriamycin by Annexin-V/FITC-based flow cytometry (reference value: 0.3%)", "assay_type": "functional"}, "[13]": {"test_system": "K562/A02", "assay": "Potentiation of adriamycin-induced apoptosis in human K562/A02 cells assessed as viable cells at 5 uM incubated for 48 hrs in presence of 10 uM adriamycin by Annexin-V/FITC-based flow cytometry (reference value: 96.5%)", "assay_type": "functional", "conditions": "read-out: Activity"}, "[14]": {"test_system": "K562/A02", "assay": "Potentiation of adriamycin-induced apoptosis in human K562/A02 cells assessed as early apoptotic cells at 5 uM incubated for 48 hrs in presence of 10 uM adriamycin by Annexin-V/FITC-based flow cytometry (reference value: 2.9%)", "assay_type": "functional"}, "[15]": {"test_system": "K562/A02", "assay": "Potentiation of adriamycin-induced apoptosis in human K562/A02 cells assessed as late apoptotic cells at 5 uM incubated for 48 hrs in presence of 10 uM adriamycin by Annexin-V/FITC-based flow cytometry (reference value: 0.4%)", "assay_type": "functional"}, "[16]": {"test_system": "K562/A02", "assay": "Potentiation of adriamycin-induced apoptosis in human K562/A02 cells assessed as necrotic cells at 5 uM incubated for 48 hrs in presence of 10 uM adriamycin by Annexin-V/FITC-based flow cytometry (reference value: 0.3%)", "assay_type": "functional"}, "[17]": {"test_system": "K562/A02", "assay": "Potentiation of adriamycin-induced apoptosis in human K562/A02 cells assessed as viable cells at 10 uM incubated for 48 hrs in presence of 10 uM adriamycin by Annexin-V/FITC-based flow cytometry (reference value: 96.5%)", "assay_type": "functional", "conditions": "read-out: Activity"}, "[18]": {"test_system": "K562/A02", "assay": "Potentiation of adriamycin-induced apoptosis in human K562/A02 cells assessed as early apoptotic cells at 10 uM incubated for 48 hrs in presence of 10 uM adriamycin by Annexin-V/FITC-based flow cytometry (reference value: 2.9%)", "assay_type": "functional"}, "[19]": {"test_system": "K562/A02", "assay": "Potentiation of adriamycin-induced apoptosis in human K562/A02 cells assessed as late apoptotic cells at 10 uM incubated for 48 hrs in presence of 10 uM adriamycin by Annexin-V/FITC-based flow cytometry (reference value: 0.4%)", "assay_type": "functional"}, "[20]": {"test_system": "K562/A02", "assay": "Potentiation of adriamycin-induced apoptosis in human K562/A02 cells assessed as necrotic cells at 10 uM incubated for 48 hrs in presence of 10 uM adriamycin by Annexin-V/FITC-based flow cytometry (reference value: 0.3%)", "assay_type": "functional"}, "[21]": {"test_system": "K562/A02", "assay": "Effect on P-gp expression in human K562/A02 cells at 1 to 10 uM incubated for 48 hrs by Western blot analysis", "assay_type": "functional, cell-based", "conditions": "dose 1-10 µM"}, "[22]": {"test_system": "MDCK-II", "assay": "Effect on BCRP expression in MDCK-II cells at 1 to 10 uM incubated for 48 hrs by Western blot analysis", "assay_type": "functional, cell-based", "conditions": "Canis lupus familiaris, dose 1-10 µM"}, "[23]": {"test_system": "K562/A02", "assay": "Antitumor activity against human K562/A02 cells xenografted in BALB/c mouse assessed as reduction in tumor size at 4 mg/kg, iv once every 2 days for 14 days in presence of 2 mg/kg adriamycin", "assay_type": "functional, organism-based", "conditions": "time 2.0 day"}, "[24]": {"test_system": "K562/A02", "assay": "Antitumor activity against human K562/A02 cells xenografted in BALB/c mouse assessed as reduction in tumor volume at 4 mg/kg, iv once every 2 days for 14 days in presence of 2 mg/kg adriamycin", "assay_type": "functional, organism-based", "conditions": "time 2.0 day"}, "[25]": {"test_system": "K562/A02", "assay": "Antitumor activity against human K562/A02 cells xenografted in BALB/c mouse assessed as reduction in tumor weight at 4 mg/kg, iv once every 2 days for 14 days in presence of 2 mg/kg adriamycin", "assay_type": "functional, organism-based", "conditions": "time 2.0 day"}, "[26]": {"test_system": "K562/A02", "assay": "Antitumor activity against human K562/A02 cells xenografted in BALB/c mouse assessed as degeneration and necrosis of tumor tissue at 4 mg/kg, iv single dose in presence of 2 mg/kg adriamycin by HE staining", "assay_type": "functional, organism-based"}, "[27]": {"assay": "Toxicity in BALB/c mouse xenografted with human K562/A02 cells assessed as degeneration and necrosis of liver tissue at 4 mg/kg, iv once every 2 days for 14 days in presence of 2 mg/kg adriamycin by HE staining", "assay_type": "organism-based", "conditions": "in vivo, 48 h, time 2 day"}, "[28]": {"assay": "Toxicity in BALB/c mouse xenografted with human K562/A02 cells assessed as degeneration and necrosis of kidney tissue at 4 mg/kg, iv once every 2 days for 14 days in presence of 2 mg/kg adriamycin by HE staining", "assay_type": "organism-based", "conditions": "in vivo, 48 h, time 2 day"}, "[29]": {"test_system": "MDCK-II", "assay": "cells", "conditions": "Canis lupus familiaris, 48 h", "description": "Cytotoxicity against MDCK-II cells incubated for 48 hrs by MTT assay"}, "[30]": {"test_system": "MDCK-II", "assay": "cells", "conditions": "Canis lupus familiaris, 48 h", "remark": "listed apart in the source", "description": "Cytotoxicity against BCRP-overexpressing MDCK-II cells incubated for 48 hrs by MTT assay"}}, "note": "Activity calls are given as the source filed them. The rule behind the calls is not given here."}
{"smiles": "COc1cc2c(cc1OC)CN(CCNC(=O)c1ccc(C)c(Nc3nccc(-c4ccco4)n3)c1)CC2", "values": [{"measurement": "IC50", "setting": "[1]", "result": "> 100", "unit": "µM"}, {"measurement": "IC50", "setting": "[2]", "result": "> 100", "unit": "µM"}, {"measurement": "logP", "setting": "[3]", "result": 2.13}, {"measurement": "Activity", "setting": "[4]", "result": "Active"}, {"measurement": "Activity", "setting": "[5]", "result": "Active"}, {"measurement": "Activity", "setting": "[6]", "result": "Dose-Dependent Effect"}, {"measurement": "Activity", "setting": "[7]", "result": "Active"}, {"measurement": "Activity", "setting": "[8]", "result": "Active"}, {"measurement": "viability at 0.5 µM", "setting": "[9]", "result": 84.8, "unit": "%"}, {"measurement": "Activity", "setting": "[10]", "result": 10.9, "unit": "%"}, {"measurement": "Activity", "setting": "[11]", "result": 3.2, "unit": "%"}, {"measurement": "Activity", "setting": "[12]", "result": 1.1, "unit": "%"}, {"measurement": "viability at 5 µM", "setting": "[13]", "result": 76.2, "unit": "%"}, {"measurement": "Activity", "setting": "[14]", "result": 12.3, "unit": "%"}, {"measurement": "Activity", "setting": "[15]", "result": 9.2, "unit": "%"}, {"measurement": "Activity", "setting": "[16]", "result": 2.4, "unit": "%"}, {"measurement": "viability at 10 µM", "setting": "[17]", "result": 68.3, "unit": "%"}, {"measurement": "Activity", "setting": "[18]", "result": 19.3, "unit": "%"}, {"measurement": "Activity", "setting": "[19]", "result": 9.8, "unit": "%"}, {"measurement": "Activity", "setting": "[20]", "result": 2.5, "unit": "%"}, {"measurement": "Activity", "setting": "[21]", "result": "inactive"}, {"measurement": "Activity", "setting": "[22]", "result": "inactive"}, {"measurement": "Activity", "setting": "[23]", "result": "Active"}, {"measurement": "Activity", "setting": "[24]", "result": "Active"}, {"measurement": "Activity", "setting": "[25]", "result": "Active"}, {"measurement": "Activity", "setting": "[26]", "result": "Active"}, {"measurement": "Activity", "setting": "[27]", "result": "Non-Toxic"}, {"measurement": "Activity", "setting": "[28]", "result": "Non-Toxic"}, {"measurement": "IC50", "setting": "[29]", "result": "> 100", "unit": "µM"}, {"measurement": "IC50", "setting": "[30]", "result": "> 100", "unit": "µM"}]}
